In patent publication EP0183129A1, “Quinolonecarboxylic acid derivatives” (KYORIN PHARMACEUTICAL CO., LTD., priority 1984, dated 1986):
Where a name gives a salt, the structure may show the parent alone. Read-outs that look alike come from different tables or passages of the source.

What was measured:
S. aureus Smith = experiment: In vitro antibacterial activity, MIC (standard strain); format: cell-based, Staphylococcus aureus
S. epidermidis IID 866 = experiment: as above; format: cell-based; settings: Staphylococcus epidermidis, IID866, S. epidermidis IID 866; 10^6 cells/ml; standard strain; read-out: MIC
S. faecalis IID 682 = experiment: as above; format: cell-based; settings: Enterococcus faecalis, IID682; S. faecalis IID 682; 10^6 cells/ml; standard strain; read-out: MIC
E. coli ML 4707 = experiment: as above; format: cell-based; settings: Escherichia coli, ML4707; E. coli ML 4707; 10^6 cells/ml; standard strain; read-out: MIC
[1] = test system: Proteus vulgaris IFO 3167; experiment: as above; format: cell-based; settings: IFO3167; Proteus vulgaris IFO 3167; 10^6 cells/ml; standard strain; read-out: MIC
[2] = test system: Citrobacter freundii IID 976; experiment: as above; format: cell-based; settings: IID976; Citrobacter freundii IID 976; 10^6 cells/ml; standard strain; read-out: MIC
[3] = test system: Klebsiella pneumoniae KY(GN)6445; experiment: as above; format: cell-based; settings: Klebsiella pneumoniae KY(GN)6445; 10^6 cells/ml; standard strain; read-out: MIC
K. pneumoniae 1-220S = experiment: as above; format: cell-based; settings: Klebsiella pneumoniae, 1220S; K. pneumoniae 1-220S; 10^6 cells/ml; standard strain; read-out: MIC
[4] = test system: Yersinia enterocolitica IID 981; experiment: as above; format: cell-based; settings: IID981; Yersinia enterocolitica IID 981; 10^6 cells/ml; standard strain; read-out: MIC
[5] = test system: Serratia marcescens IID 618; experiment: as above; format: cell-based; settings: Serratia marcescens, IID618, Serratia marcescens IID 618; 10^6 cells/ml; standard strain; read-out: MIC
S. marcescens GN 7577 = experiment: as above; format: cell-based; settings: Serratia marcescens, GN7577; S. marcescens GN 7577; 10^6 cells/ml; standard strain; read-out: MIC
P. aeruginosa IFO 12689 = experiment: as above; format: cell-based, Pseudomonas aeruginosa; settings: Pseudomonas aeruginosa, IFO12689; P. aeruginosa IFO 12689; 10^6 cells/ml; standard strain; read-out: MIC
[6] = test system: Acinetobacter anitratus IID 876; experiment: as above; format: cell-based; settings: Acinetobacter calcoaceticus, IID876, Acinetobacter anitratus IID 876; 10^6 cells/ml; standard strain; read-out: MIC
[7] = test system: Alcaligenes faecalis 0104002; experiment: as above; format: cell-based
B. fragilis 25285 = experiment: as above; format: cell-based, Bacteroides fragilis; settings: Bacteroides fragilis, 25285, B. fragilis 25285; 10^6 cells/ml; standard strain; read-out: MIC
C. ramosum = experiment: as above; format: cell-based; settings: Thomasclavelia ramosa; C. ramosum; 10^6 cells/ml; standard strain; read-out: MIC
S. pneumoniae 15 = experiment: In vitro antibacterial activity, MIC (clinical isolates); format: cell-based; settings: Streptococcus pneumoniae; S. pneumoniae 15; 10^6 cells/ml; clinical isolate; read-out: MIC
S. pneumoniae 2054 = experiment: as above; format: cell-based; settings: Streptococcus pneumoniae; S. pneumoniae 2054; 10^6 cells/ml; clinical isolate; read-out: MIC
S. pneumoniae 2950 = experiment: as above; format: cell-based; settings: Streptococcus pneumoniae; S. pneumoniae 2950; 10^6 cells/ml; clinical isolate; read-out: MIC
S. pyogenes 3130 = experiment: as above; format: cell-based; settings: Streptococcus pyogenes, read-out: MIC
S. pyogenes 3102 = experiment: as above; format: cell-based; settings: Streptococcus pyogenes; S. pyogenes 3102; 10^6 cells/ml; clinical isolate; read-out: MIC
S. pyogenes 3107 = experiment: as above; format: cell-based; settings: Streptococcus pyogenes; S. pyogenes 3107; 10^6 cells/ml; clinical isolate; read-out: MIC
S. pyogenes 4340 = experiment: as above; format: cell-based; settings: Streptococcus pyogenes; S. pyogenes 4340; 10^6 cells/ml; clinical isolate; read-out: MIC
S. pyogenes 4372 = experiment: as above; format: cell-based; settings: Streptococcus pyogenes; S. pyogenes 4372; 10^6 cells/ml; clinical isolate; read-out: MIC
S. agalactiae 4394 = experiment: as above; format: cell-based; settings: Streptococcus agalactiae; S. agalactiae 4394; 10^6 cells/ml; clinical isolate; read-out: MIC
S. agalactiae 4342 = experiment: as above; format: cell-based; settings: Streptococcus agalactiae; S. agalactiae 4342; 10^6 cells/ml; clinical isolate; read-out: MIC
S. agalactiae 4470 = experiment: as above; format: cell-based; settings: Streptococcus agalactiae; S. agalactiae 4470; 10^6 cells/ml; clinical isolate; read-out: MIC
S. agalactiae 4368 = experiment: as above; format: cell-based; settings: Streptococcus agalactiae; S. agalactiae 4368; 10^6 cells/ml; clinical isolate; read-out: MIC
S. faecalis 49 = experiment: as above; format: cell-based; settings: Enterococcus faecalis; S. faecalis 49; 10^6 cells/ml; clinical isolate; read-out: MIC
S. faecalis 214 = experiment: as above; format: cell-based; settings: Enterococcus faecalis; S. faecalis 214; 10^6 cells/ml; clinical isolate; read-out: MIC
[8] = MIC column of Table 3-1, beside ED50 against S. aureus Smith
[9] = Staphylococcus aureus, S. aureus Smith, 10^6 cells/ml, standard strain, read-out: MIC
[10] = Alcaligenes faecalis, 0104002, Alcaligenes faecalis 0104002, 10^6 cells/ml, standard strain, read-out: MIC

| Compound | MIC (S. aureus Smith; [9]) | MIC (S. epidermidis IID 866) | MIC (S. faecalis IID 682) | MIC (E. coli ML 4707) | MIC [1] | MIC [2] | MIC [3] | MIC (K. pneumoniae 1-220S) | MIC [4] | MIC [5] | MIC (S. marcescens GN 7577) | MIC (P. aeruginosa IFO 12689) | MIC [6] | MIC (B. fragilis 25285) | MIC (C. ramosum) | MIC (S. pneumoniae 15) | MIC (S. pneumoniae 2054) | MIC (S. pneumoniae 2950) | MIC (S. pyogenes 3130) | MIC (S. pyogenes 3102) | further results |
| --- | --- | --- | --- | --- | --- | --- | --- | --- | --- | --- | --- | --- | --- | --- | --- | --- | --- | --- | --- | --- | --- |
| NCC1CCN(c2c(F)cc3c(=O)c(C(=O)O)cn(C4CC4)c3c2F)C1 (stereo not drawn) [Example 1, 7-(3-Aminomethyl-l-pyrrolidinyl)-l-cyclopropyl-6,8-difluoro-1,4-dihydro-4-oxo-3-quinolinecarboxylic acid hydrochloride] | 0.05 µg/mL | 0.05 µg/mL | 0.05 µg/mL | 0.025 µg/mL | 0.025 µg/mL | 0.05 µg/mL | 0.05 µg/mL | 0.05 µg/mL | 0.05 µg/mL | 0.2 µg/mL | 0.78 µg/mL | 0.39 µg/mL | 0.1 µg/mL | 0.39 µg/mL | 0.78 µg/mL | 0.05 µg/mL | 0.05 µg/mL | 0.05 µg/mL | 0.05 µg/mL | 0.05 µg/mL | MIC (S. aureus Smith; [8]): 0.05 µg/mL; MIC [7, 10]: 0.39 µg/mL; MIC (S. pyogenes 3107): 0.05 µg/mL; MIC (S. pyogenes 4340): 0.05 µg/mL; MIC (S. pyogenes 4372): 0.05 µg/mL; MIC (S. agalactiae 4394): 0.1 µg/mL; MIC (S. agalactiae 4342): 0.05 µg/mL; MIC (S. agalactiae 4470): 0.05 µg/mL; MIC (S. agalactiae 4368): 0.05 µg/mL; MIC (S. faecalis 49): 0.1 µg/mL; MIC (S. faecalis 214): 0.1 µg/mL |
| CCNCC1CCN(c2c(F)cc3c(=O)c(C(=O)O)cn(C4CC4)c3c2F)C1 (stereo not drawn) [Example 2, l-Cyclopropyl-7-(3-ethylaminomethyl-l-pyrrolidinyl)-6,8-difluoro-l,4-dihydro-4-oxo-3-quinolinecarboxylic acid hydrochloride] | 0.025 µg/mL | 0.05 µg/mL | 0.2 µg/mL | 0.025 µg/mL | 0.025 µg/mL | 0.05 µg/mL | 0.05 µg/mL | 0.1 µg/mL | 0.1 µg/mL | 0.1 µg/mL | 1.56 µg/mL | 1.56 µg/mL | 0.05 µg/mL | 0.78 µg/mL | 0.78 µg/mL | 0.05 µg/mL | 0.1 µg/mL | 0.1 µg/mL | 0.05 µg/mL | 0.05 µg/mL | MIC (S. aureus Smith; [8]): 0.025 µg/mL; MIC [7, 10]: 0.1 µg/mL; MIC (S. pyogenes 3107): 0.05 µg/mL; MIC (S. pyogenes 4340): 0.1 µg/mL; MIC (S. pyogenes 4372): 0.1 µg/mL; MIC (S. agalactiae 4394): 0.2 µg/mL; MIC (S. agalactiae 4342): 0.1 µg/mL; MIC (S. agalactiae 4470): 0.1 µg/mL; MIC (S. agalactiae 4368): 0.1 µg/mL; MIC (S. faecalis 49): 0.2 µg/mL; MIC (S. faecalis 214): 0.2 µg/mL |
| CCNCC1CCN(c2cc3c(cc2F)c(=O)c(C(=O)O)cn3C2CC2)C1.Cl (centres unmarked) [Example 7, 1-Cyclopropyl-7-(3-ethylaminomethyl-1-pyrrolidinyl)-6-fluoro-1,4-dihydro-4-oxo-3-quinolinecarboxylic acid hydrochloride] | 0.1 µg/mL | 0.05 µg/mL | 0.39 µg/mL | 0.05 µg/mL | 0.05 µg/mL | 0.1 µg/mL | 0.1 µg/mL | 0.2 µg/mL | 0.39 µg/mL | 0.39 µg/mL | 6.25 µg/mL | 3.13 µg/mL | 0.78 µg/mL | 25 µg/mL | 6.25 µg/mL | 0.39 µg/mL | 0.39 µg/mL | 0.39 µg/mL | 0.2 µg/mL | 0.2 µg/mL | MIC [7, 10]: 1.56 µg/mL; MIC (S. pyogenes 3107): 0.2 µg/mL; MIC (S. pyogenes 4340): 0.2 µg/mL; MIC (S. pyogenes 4372): 0.2 µg/mL; MIC (S. agalactiae 4394): 0.39 µg/mL; MIC (S. agalactiae 4342): 0.39 µg/mL; MIC (S. agalactiae 4470): 0.39 µg/mL; MIC (S. agalactiae 4368): 0.39 µg/mL; MIC (S. faecalis 49): 0.78 µg/mL; MIC (S. faecalis 214): 0.78 µg/mL |
| CNCC1CCN(c2cc3c(cc2F)c(=O)c(C(=O)O)cn3C2CC2)C1 (stereo not drawn) [Example 9, 1-Cyclopropyl-6-fluoro-1,4-dihydro-7-(3-methylaminomethyl-l-pyrrolidinyl)-4-oxo-3-quinolinecarboxylic acid hydrochloride] | 0.39 µg/mL | 0.1 µg/mL | 0.39 µg/mL | 0.1 µg/mL | 0.1 µg/mL | 0.2 µg/mL | 0.1 µg/mL | 0.39 µg/mL | 0.39 µg/mL | 0.39 µg/mL | 6.25 µg/mL | 3.13 µg/mL | 0.78 µg/mL | 25 µg/mL | 12.5 µg/mL | 0.39 µg/mL | 0.78 µg/mL | 0.78 µg/mL | 0.1 µg/mL | 0.1 µg/mL | MIC ([7]; Alcaligenes faecalis, 0104002): 1.56 µg/mL; MIC (S. pyogenes 3107): 0.1 µg/mL; MIC (S. pyogenes 4340): 0.2 µg/mL; MIC (S. pyogenes 4372): 0.2 µg/mL; MIC (S. agalactiae 4394): 0.78 µg/mL; MIC (S. agalactiae 4342): 0.39 µg/mL; MIC (S. agalactiae 4470): 0.39 µg/mL; MIC (S. agalactiae 4368): 0.2 µg/mL; MIC (S. faecalis 49): 0.39 µg/mL; MIC (S. faecalis 214): 0.39 µg/mL |
